Experimental data published in patent US20250034135A1, “ANTI-APOPTOTIC PROTEIN BCL-2 INHIBITOR, PHARMACEUTICAL COMPOSITION AND USES THEREOF” (HANGZHOU HEALZEN THERAPEUTICS CO., LTD., priority 2021, published 2025).
pIC50: −log10 of the molar value.

Molecular target: BCL2 (Homo sapiens (Human), UniProt P10415)
Assay: Molecular level activity test of anti-apoptotic protein BCL2 (HTRF, binding to Bim peptide)
Details: HTRF, binding of BCL2 to Bim peptide; read-out: BCL2 nM (inhibitory activity, IC50)
Procedure, shortened: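 Competition binding format: recombinant His-BCL2 and a biotin-Bim peptide are incubated with compound for 1 h, followed by 4 h at room temperature with HTRF detection antibodies.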

Chain of BCL2 (P10415 whole entry): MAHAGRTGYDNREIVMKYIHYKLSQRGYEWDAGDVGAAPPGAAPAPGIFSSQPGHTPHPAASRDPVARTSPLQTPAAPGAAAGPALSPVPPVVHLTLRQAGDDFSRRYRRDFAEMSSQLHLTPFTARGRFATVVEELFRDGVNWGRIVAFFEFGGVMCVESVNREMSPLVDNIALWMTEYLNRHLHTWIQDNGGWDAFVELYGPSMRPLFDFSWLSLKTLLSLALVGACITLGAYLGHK

| pIC50 | Structure (SMILES) |
| --- | --- |
| > 8.00 | CC(C)c1ccccc1[C@@H]1CCCN1C1CC2(CCN(c3cc(Oc4cnc5[nH]ccc5c4)c(C(=O)NS(=O)(=O)c4cc([N+](=O)[O-])c(NCC5(F)CCN(CC(C)(C)C)CC5)c5[nH]cnc45)cn3)CC2)C1 [compound 025, (S)-4-((1H-pyrrolo[2,3-b]pyrid-5-yl)oxy)-N-((7-(((4-fluoro-1-neopentylpiperid-4-yl)methyl)amino)-6-nitro-1H-benzo[d]imidazol-4-yl)sulfonyl)-6-(2-(2-(2-isopropylphenyl)pyrrolidin-1-yl)-7-azaspiro[3.5]non-7-yl) nicotinamide] |
| > 8.00 | COc1ccc(CN2CCN(C3CC4(CCN(c5ccc(C(=O)NS(=O)(=O)c6cc([N+](=O)[O-])c(NC[C@H]7CC[C@](C)(O)CC7)c7[nH]cnc67)c(Oc6cnc7[nH]ccc7c6)c5)CC4)C3)C(c3ccccc3C(C)C)C2)cc1 (stereo partly shown) [compound 039, 2-((1H-pyrrolo[2,3-b]pyrid-5-yl)oxy)-N-((7-((((1r,4r)-4-hydroxy-4-methylcyclohexyl)methyl)amino)-6-nitro-1H-benzo[d]imidazol-4-yl)sulfonyl)-4-(2-(2-(2-isopropylphenyl)-4-(4-methoxybenzyl)piperazin-1-yl)-7-azaspiro[3.5]non-7-yl)benzamide] |
| > 8.00 | CC(C)c1ccccc1[C@@H]1CCCN1C1CC2(CCN(c3ccc(C(=O)NS(=O)(=O)c4cc([N+](=O)[O-])c(NC[C@H]5CC[C@](C)(O)CC5)c5[nH]cnc45)c(Oc4cnc5[nH]cc(F)c5c4)c3)CC2)C1 [compound 011, 2-((3-fluoro-1H-pyrrolo[2,3-b]pyrid-5-yl)oxy)-N-((7-((((1r,4r)-4-hydroxy-4-methylcyclohexyl)methyl)amino)-6-nitro-1H-benzo[d]imidazol-4-yl)sulfonyl)-4-(2-((S)-2-(2-isopropylphenyl)pyrrolidin-1-yl)-7-azaspiro[3.5]non-7-yl)benzamide] |
| > 8.00 | COc1ccc(CN2CCN(C3CC4(CCN(c5cc(Oc6cnc7[nH]ccc7c6)c(C(=O)NS(=O)(=O)c6cc([N+](=O)[O-])c(NCC7(F)CCOCC7)c7ocnc67)cn5)CC4)C3)[C@H](c3ccccc3C(C)C)C2)cc1 [compound 133, (R)-4-((1H-pyrrolo[2,3-b]pyridine-5-yl)oxy)-N-((7-(((4-fluorotetrahydro-2H-pyran-4-yl)methyl)amino)-6-nitrobenzo[d]oxazol-4-yl)sulfonyl)-6-(2-(2-(2-isopropylphenyl)-4-(4-methoxybenzyl)piperazin-1-yl)-7-azaspiro[3.5]non-7-yl) nicotinamide] |
| > 8.00 | CC(=O)Nc1ccc(CN2CCN(C3CC4(CCN(c5cc(Oc6cnc7[nH]ccc7c6)c(C(=O)NS(=O)(=O)c6ccc(NCC7(F)CCOCC7)c([N+](=O)[O-])c6)cc5F)CC4)C3)[C@H](c3ccccc3C(C)C)C2)cc1 [compound 200, (R)-2-((1H-pyrrolo[2,3-b]pyrid-5-yl)oxy)-4-(2-(4-(4-acetylaminobenzyl)-2-(2-isopropylphenyl)piperazin-1-yl)-7-azaspiro[3.5]non-7-yl)-5-fluoro-N-((4-(((4-fluorotetrahydro-2H-pyran-4-yl)methyl)amino)-3-nitrophenyl)sulfonyl)benzamide] |
| > 8.00 | COc1ccc(CN2CCN(C3CC4(CCN(c5ccc(C(=O)NS(=O)(=O)c6cc([N+](=O)[O-])c(NC[C@H]7CC[C@](C)(O)CC7)c7[nH]cnc67)c(Oc6cnc7[nH]ccc7c6)c5)CC4)C3)C(c3ccccc3C(C)C)C2)cn1 (stereo partly shown) [compound 045, 2-((1H-pyrrolo[2,3-b]pyrid-5-yl)oxy)-N-((7-((((1r,4r)-4-hydroxy-4-methylcyclohexyl)methyl)amino)-6-nitro-1H-benzo[d]imidazol-4-yl)sulfonyl)-4-(2-(2-(2-isopropylphenyl)-4-((6-methoxypyrid-3-yl)methyl)piperazin-1-yl)-7-azaspiro[3.5]non-7-yl)benzamide] |
| > 8.00 | COc1ccc(CN2CCN(C3CC4(CCN(c5cc(Oc6cnc7[nH]ccc7c6)c(C(=O)NS(=O)(=O)c6ccc(NCC7(F)CCOCC7)c([N+](=O)[O-])c6)cn5)CC4)C3)C(c3ccccc3C(C)C)C2)cc1 (stereo not shown) [compound 065, 4-((1H-pyrrolo[2,3-b]pyrid-5-yl)oxy)-N-((4-(((4-fluorotetrahydro-2H-pyran-4-yl)methyl)amino)-3-nitrophenyl)sulfonyl)-6-(2-(2-(2-isopropylphenyl)-4-(4-methoxybenzyl)piperazin-1-yl)-7-azaspiro[3.5]non-7-yl) nicotinamide] |
| > 8.00 | CC(C)c1ccccc1C1CN(C2CCOCC2)CCN1C1CC2(CCN(c3cc(Oc4cnc5[nH]cc(F)c5c4)c(C(=O)NS(=O)(=O)c4ccc(NC[C@H]5CC[C@](C)(O)CC5)c([N+](=O)[O-])c4)cn3)CC2)C1 (stereo partly shown) [compound 059, 4-((3-fluoro-1H-pyrrolo[2,3-b]pyrid-5-yl)oxy)-N-((4-((((1r,4r)-4-hydroxy-4-methylcyclohexyl)methyl)amino)-3-nitrophenyl)sulfonyl)-6-(2-(2-(2-isopropylphenyl)-4-(tetrahydro-2H-pyran-4-yl)piperazin-1-yl)-7-azaspiro[3.5]non-7-yl) nicotinamide] |
| > 8.00 | COc1ccc(CN2CCN(C3CC4(CCN(c5cc(Oc6cnc7[nH]ccc7c6)c(C(=O)NS(=O)(=O)c6cc([N+](=O)[O-])c(NCC7(F)CCOCC7)c7c6OCO7)cc5F)CC4)C3)[C@H](c3ccccc3C(C)C)C2)c(F)n1 [compound 130, (R)-2-((1H-pyrrolo[2,3-b]pyrid-5-yl)oxy)-5-fluoro-4-(2-(4-((2-fluoro-6-methoxypyrid-3-yl)methyl)-2-(2-isopropylphenyl)piperazin-1-yl)-7-azaspiro[3.5]non-7-yl)-N-((7-(((4-fluorotetrahydro-2H-pyran-4-yl)methyl)amino)-6-nitrobenzo[d][1,3]dioxocyclopent-4-yl)sulfonyl)benzamide] |
| > 8.00 | COc1ccc(CN2CCN(C3CC4(C3)CN(c3cc(Oc5cnc6[nH]ccc6c5)c(C(=O)NS(=O)(=O)c5cc([N+](=O)[O-])c(NCC6(F)CCN(C(C)C)CC6)c6[nH]cnc56)cn3)C4)C(c3ccccc3C(C)C)C2)cc1 (stereo not shown) [compound 070, 4-((1H-pyrrolo[2,3-b]pyrid-5-yl)oxy)-N-((7-(((4-fluoro-1-isopropylpiperid-4-yl)methyl)amino)-6-nitro-1H-benzo[d]imidazol-4-yl)sulfonyl)-6-(6-(2-(2-isopropylphenyl)-4-(4-methoxybenzyl)piperazin-1-yl)-2-azaspiro[3.3]hept-2-yl) nicotinamide] |
| > 8.00 | CC(C)c1ccccc1[C@@H]1CCCN1C1CC2(CCN(c3cc(Oc4cnc5[nH]ccc5c4)c(C(=O)NS(=O)(=O)c4cc([N+](=O)[O-])c(NC[C@H]5CC[C@](C)(O)CC5)c5c4OCCO5)cc3F)CC2)C1 [compound 099, 2-((1H-pyrrolo[2,3-b]pyrid-5-yl)oxy)-5-fluoro-N-((8-((((1r, 4r)-4-hydroxy-4-methylcyclohexyl)methyl)amino)-7-nitro-2,3-dihydrobenzo[b][1,4]dioxan-5-yl)sulfonyl)-4-(2-((S)-2-(2-isopropylphenyl)pyrrolidin-1-yl)-7-azaspiro[3.5]non-7-yl)benzamide] |
| > 8.00 | COc1ccc(CN2CCN(C3CC4(C3)CN(c3ccc(C(=O)NS(=O)(=O)c5cc([N+](=O)[O-])c(NCC6(F)CCN(C(C)C)CC6)c6[nH]cnc56)c(Oc5cnc6[nH]ccc6c5)c3)C4)C(c3ccccc3C(C)C)C2)cc1 (stereo not shown) [compound 046, 2-((1H-pyrrolo[2,3-b]pyrid-5-yl)oxy)-N-((7-(((4-fluoro-1-isopropylpiperid-4-yl)methyl)amino)-6-nitro-1H-benzo[d]imidazol-4-yl)sulfonyl)-4-(6-(2-(2-isopropylphenyl)-4-(4-methoxybenzyl)piperazin-1-yl)-2-azaspiro[3.3]hept-2-yl)benzamide] |
| > 8.00 | COc1ccc(CN2CCN(C3CC4(CCN(c5ccc(C(=O)NS(=O)(=O)c6cc([N+](=O)[O-])c(NC[C@H]7CC[C@](C)(O)CC7)c7[nH]cnc67)c(N6CCOc7nc8[nH]ccc8cc76)c5)CC4)C3)C(c3ccccc3C(C)C)C2)cc1 (stereo partly shown) [compound 089, 2-(2,3-dihydropyrrolo[3′,2′:5,6]pyridino[2,3-b][1,4]oxazin-1 (6H)-yl)-N-((7-((((1r,4r)-4-hydroxy-4-methylcyclohexyl)methyl)amino)-6-nitro-1H-benzo[d]imidazol-4-yl)sulfonyl)-4-(2-(2-(2-isopropylphenyl)-4-(4-methoxybenzyl)piperazin-1-yl)-7-azaspiro[3.5]non-7-yl)benzamide] |
| > 8.00 | COc1ccc(CN2CCN(C3CC4(CCN(c5ccc(C(=O)NS(=O)(=O)c6cc([N+](=O)[O-])c(NCC7(F)CCOCC7)c7c6OCO7)c(Oc6cnc7[nH]ccc7c6)c5)CC4)C3)[C@H](c3ccccc3C(C)C)C2)cc1 [compound 147, (R)-2-((1H-pyrrolo[2,3-b]pyrid-5-yl)oxy)-N-((7-(((4-fluorotetrahydro-2H-pyran-4-yl)methyl)amino)-6-nitrobenzo[d][1,3]dioxocyclopent-4-yl)sulfonyl)-4-(2-(2-(2-isopropylphenyl)-4-(4-methoxybenzyl)piperazin-1-yl)-7-azaspiro[3.5]non-7-yl)benzamide] |
| > 8.00 | CC(C)c1ccccc1[C@@H]1CCCN1C1CC2(CCN(c3cc(Oc4cnc5[nH]ccc5c4)c(C(=O)NS(=O)(=O)c4cc([N+](=O)[O-])c(NCC5(F)CCOCC5)c5scnc45)cc3F)CC2)C1 [compound 104, (S)-2-((1H-pyrrolo[2,3-b]pyrid-5-yl)oxy)-5-fluoro-N-((7-(((4-fluorotetrahydro-2H-pyran-4-yl)methyl)amino)-6-nitrobenzo[d]thiazol-4-yl)sulfonyl)-4-(2-(2-(2-isopropylphenyl)pyrrolidin-1-yl)-7-azaspiro[3.5]non-7-yl)benzamide] |
| > 8.00 | COc1ccc(CN2CCN(C3CC4(CCN(c5cc(Oc6cnc7[nH]ccc7c6)c(C(=O)NS(=O)(=O)c6ccc(NC[C@H]7CC[C@](C)(O)CC7)c([N+](=O)[O-])c6)cc5F)CC4)C3)[C@H](c3ccccc3C(C)C)C2)cc1OC [compound 221, 2-((1H-pyrrolo[2,3-b]pyrid-5-yl)oxy)-4-(2-((R)-4-(3,4-dimethoxybenzyl)-2-(2-isopropylphenyl)piperazin-1-yl)-7-azaspiro[3.5]non-7-yl)-5-fluoro-N-((4-((((1r, 4r)-4-hydroxy-4-methylcyclohexyl)methyl)amino)-3-nitrophenyl)sulfonyl)benzamide] |
